Measurements reported in patent publication US20200100497A1, “SAFENERS AND FORMULATIONS CONTAINING SAFENERS, BIOCIDES AND INOCULANTS” (Bayer CropScience LP, priority 2017, published 2020).

Assays:
[1] = Stability of CropStar formulation and thiodicarb in presence of sodium bisulfite, Example 1; assay type: physicochemical
Protocol: Sodium bisulfite was added to CropStar® (150 g/L imidacloprid+450 g/L thiodicarb; Bayer CropScience) in various mole ratios to formaldehyde (0.5:1, 1:1, 2:1, and 5:1) with or without pH adjustment to pH 7. Efficacy of sodium bisulfite was compared to no safener (Sample Nos. 1 & 5), two comparative safeners (Safener 1 & Safener 2), and inoculum only (BIAGRO Liquido NG—liquid inoculant and BIAGRO 10 Plus—peat-based inoculant). Safener 1 was obtained from Novozymes and contains the following active ingredients: soybean oil (CAS #8001-22-7), hydrolysed starch syrups (CAS #8029-43-4), and yeast extract (CAS #8013-01-2). Safener 2 was provided by Biagro and contains the following active ingredients: yeast extract, K2HPO4, and milk powder.

[2] = C-13 NMR stability of the formaldehyde/sodium bisulfite/N,N-dimethylamine adduct in aqueous solution; assay type: physicochemical; settings: room temperature; for Conversion of N,N-dimethyl adduct back to formaldehyde bisulfite adduct: 18 days
Protocol: In a small vial, 137 mg of formaldehyde sodium bisulfite (CAS 870-72-4) was combined with 10 mL of high purity water and 200 mg of N,N-dimethylamine and stirred at room temperature to mix. The resulting mixture was stored at room temperature.
Aliquots of the mixture was analysed by C-13 NMR spectral analysis 48 hours and 18 days following formation.

| SMILES | Degradation of thiodicarb ([1]; 1:1 mole ratio of sodium bisulfite to formaldehyde in CropStar) | Physical stability of the CropStar formulation ([1]; sodium bisulfite added to CropStar) | Conversion of N,N-dimethyl adduct back to formaldehyde bisulfite adduct [2] | Conversion of N,N-dimethyl adduct back to formaldehyde bisulfite adduct ([2]; listed as N,N-dimethylamine product) [%] | Time for which adduct is stable / takes to reverse back to formaldehyde bisulfite adduct [2] [days] |
| --- | --- | --- | --- | --- | --- |
| O=S([O-])O.[Na+] [sodium bisulfite] | did not significantly degrade thiodicarb | without affecting the physical stability of the formulation |  |  |  |
| CN(C)CS(=O)(=O)O [N,N-dimethyl adduct (CAS 68507-34-6), 1-(dimethylamino)-methanesulfonic acid] |  |  | approximately 3.5% | 3.5 | > 18 |
